Assay results: US4971990A, “Phenoxyethylamine derivatives, for preparing the same and composition for exhibiting excellent α1 -blocking activity containing the same” (Hokuriku Pharmaceutical Co., Ltd., priority 1988, dated 1990)
Counter-ions that a name gives are not always drawn. Like-named read-outs stand apart in the source and are kept apart here.

Key:
[1] = test system: α1-adrenoceptor; assay: α1-adrenoceptor blocking action (noradrenaline concentration-response in isolated thoracic aorta); type: cell-based, rabbit (Japanese white, male); details: for pA2 value: negative logarithm of KB (M), noradrenaline as agonist, rabbit thoracic aorta, 30 min exposure, 10^-6 M propranolol; for α1-adrenoceptor selectivity 10^(pA2-pKi): α1-adrenoceptors (pA2, rabbit aorta) compared to dopamine D2-receptors (pKi, rat striatum)
Procedure: α1 -adrenoceptor blocking action
Method: The thoracic aorta were isolated from male rabbits (Japanese white, about 2.5 kg b.w.) and helically cut. The preparations were suspended in Krebs-Henseleit solution maintained at 37° C. and aerated with a gas mixture of 95%O2 +5%CO2. Responses to drugs were recorded isometrically under a tension of 2 g. After an equilibration period of about 60 min., cumulative concentration-response curves for noradrenaline were constructed. The preparations were exposed to the test compounds for 30 min. before rechallenge with noradrenaline. The dose ratio was obtained from the ratio of an ED50 value (the concentration needs to produce the half maximum response) of noradrenaline in the presence and absence of the test compound. The test compounds dissociation constants (KB) were determined according to the following equation.
KB =[concentration of the test compound (M)/(dose ratio-1)]
The pA2 values were then expressed as the negative logarithm of KB.
This value represents the blocking activity of a test compound to α1 -adrenoceptors. In these experimental periods, 10^-6 M propranolol was treated to block β-adrenoceptors. The results shown in Table 1-a indicate that the α1 -adrenoceptor blocking activites of the test compounds are almost the as same as that of YM-12617.
The selectivity of the test compound to α1 -adrenoceptors compared to dopamine D2 -receptors is determined according to the following equation.
α1 -adrenoceptor selectivity =10^(pA 2^-pK i^)

[2] = molecular target: T1, dopamine D2-receptor (Rattus norvegicus, UniProt P61169); assay: Dopamine D2-receptor radioligand-binding assay (3H-spiperone, brain striatum membranes); design: species or system rat (male Wistar)
T1 construct: The homogenates were centrifuged and synaptic membrane fractions were obtained; from tissue; host or cells: brain striatum, synaptic membrane fraction, male Wistar rat
T1 sequence (P61169 whole entry): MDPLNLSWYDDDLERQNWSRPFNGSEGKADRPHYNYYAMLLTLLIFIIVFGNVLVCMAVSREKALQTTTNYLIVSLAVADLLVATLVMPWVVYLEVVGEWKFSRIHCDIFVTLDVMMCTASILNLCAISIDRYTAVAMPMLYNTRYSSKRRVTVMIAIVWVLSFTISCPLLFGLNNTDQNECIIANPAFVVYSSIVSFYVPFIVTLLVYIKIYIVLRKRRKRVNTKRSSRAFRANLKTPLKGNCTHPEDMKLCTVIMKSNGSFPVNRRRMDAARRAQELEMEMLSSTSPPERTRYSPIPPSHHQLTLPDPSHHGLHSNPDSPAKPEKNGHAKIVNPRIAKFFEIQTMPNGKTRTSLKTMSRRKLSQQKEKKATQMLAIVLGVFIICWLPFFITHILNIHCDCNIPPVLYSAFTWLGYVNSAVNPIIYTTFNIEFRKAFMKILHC
Procedure: Dopamine D2 -receptor radioligand-binding assay
Method: These experiments were done according to the method of Coward, D et al. (Naunyn-Schmiedeberg's Archives of Pharmacology (1987)335, 115-122). Briefly, brain striatum were isolated from male Wistar rats (about 200 g b.w.). The tissues were homogenaized in ice-cold 50 mM Tris buffer (pH7.4) with a polytron and centrifuged at 50,000 g for 15 min.. The pellets were homogenaized in the same Tris buffer and incubated for 5 min. at 37° C. The homogenates were centrifuged and synaptic membrane fractions were obtained. The membrane fractions were incubated with ^3 H-spiperone and various concentrations of the test compounds for 50 min. at 25° C. The reaction was terminated by filtration on a GF/B glass filter under vacuum. The radioactivity on the filter was measured using a liquid scintillation counter. The test compounds' dissociation constants (Ki) were determined according to the following equation.
IC50 : the test compound concentration needed to inhibit 50% of ^3 H-spiperone binding calculated by pseudo-Hill plot.
L : ^3 H-spiperone concentration
Kd : ^3 H-spiperone dissociation constant calculated by Scatchard plot.
The pKi values was then expressed as the negative logarithum of Ki. This value represents an affinity of the test compound to dopamine D2 -receptors. Non-specific binding of ^3 H-spiperone was determined in the presence of 10^-5 M sulpiride. Protein concentration was determined by the method of Lowry.

[3] = 3H-spiperone, rat striatum synaptic membranes, 50 min at 25° C., non-specific binding with 10^-5 M sulpiride, read-out: pKi value (converted)

SMILES | pA2 value [1] | α1-adrenoceptor selectivity 10^(pA2-pKi) [1] | Ki [2, 3] [nM] | Ki [2] [nM]
CCOc1ccc(CC(C)NCCOc2cc(F)ccc2OC)cc1S(N)(=O)=O (stereo not drawn) [Example 2, 2-Ethoxy-5-[2-[2-(5-fluoro-2-methoxyphenoxy)ethylamino]propyl] benzenesulfonamide hydrochloride] | 9.05 | 186 | 166 | –
CNS(=O)(=O)c1cc(CC(C)NCCOc2cc(F)ccc2OC)ccc1OC.O=C(O)C(=O)O (stereo not drawn) [Example 9, 5-[2-[2-(5-Fluoro-2-methoxyphenoxy)ethylamino]propyl]-2-methoxy-N-methylbenzenesulfonamide oxalate] | 9.34 | – | – | 93.3
CCOc1ccc(F)cc1OCCNC(C)Cc1ccc(OC)c(S(N)(=O)=O)c1.Cl (stereo not drawn) [Example 14, 5-[2-[2-(2-Ethoxy-5-fluorophenoxy)ethylamino]propyl]-2-methoxybenzenesulfonamide hydrochloride] | 9.69 | 115 | – | 23.4
COc1ccc(F)cc1OCCN[C@H](C)Cc1ccc(OC)c(S(N)(=O)=O)c1.Cl [Example 34, R-(-)-5-[2-[2-(5-Fluoro-2-methoxyphenoxy)-ethylamino]propyl]-2-methoxybenzenesulfonamide hydrochloride] | 9.77 | 437 | – | 74.1
CCNS(=O)(=O)c1cc(CC(C)NCCOc2cc(F)ccc2OC)ccc1OC (stereo not drawn) [Example 21, N-Ethyl-5-[2-(5-fluoro-2-methoxyphenoxy)ethylamino]propyl]-2-methoxy-benzenesulfonamide oxalate] | 9.14 | – | – | 93.3
CCCCNS(=O)(=O)c1cc(CC(C)NCCOc2cc(F)ccc2OC)ccc1OC.O=C(O)C(=O)O (stereo not drawn) [Example 22, N-Butyl-5-[2-[2-(5-fluoro-2-methoxyphenoxy)ethylamino]propyl]-2-methoxybenzenesulfonamide oxalate] | 9.08 | – | – | 77.6
CCOc1ccc(F)cc1OCCNC(C)Cc1ccc(OC)c(S(=O)(=O)N(C)C)c1.O=C(O)C(=O)O (stereo not drawn) [Example 15, 5-[2-[2-(2-Ethoxy-5-fluorophenoxy)ethylamino]propyl]-2-methoxy-N,N-dimethylbenzenesulfonamide oxalate] | 9.48 | 78 | – | 25.7
CCOc1ccccc1OCCNC(C)Cc1ccc(OC)c(S(N)(=O)=O)c1 (racemic) [YM-12617, 5-[2-[[2-(2-ethoxyphenoxy)ethyl]amino]propyl]-2-methoxybenzene-sulfonamidehydrochloride, reference compound] | 9.38 | 50 | 20.9 | –
COc1ccc(F)cc1OCCNC(C)Cc1ccc(OC)c(S(=O)(=O)N2CCCCC2)c1 (stereo not drawn) [Example 12, 1-[[5-[2-[2-(5-Fluoro-2-methoxyphenoxy)ethylamino]propyl]-2-methoxyphenyl]sulfonyl]-methoxyphenyl]sulfonyl]piperidine oxalate] | 9.10 | – | – | 89.1
CCCNS(=O)(=O)c1cc(CC(C)NCCOc2cc(F)ccc2OC)ccc1OC (stereo not drawn) [Example 20, 5-[2[2-(5-Fluoro-2-methoxyphenoxy)ethylamino]propyl]-2-methoxy-N-propylbenzenesulfonamide 1/2fumarate] | 9.10 | – | 129 | –
CCOc1ccc(F)cc1OCCNC(C)Cc1ccc(OCC)c(S(N)(=O)=O)c1 (stereo not drawn) [Example 5, 2-Ethoxy-5-[2-[2-(2-ethoxy-5-fluorophenoxy)ethylamino]propyl] benzenesulfonamide hydrochloride] | 8.98 | 79 | – | 83.2
COc1ccc(F)cc1OCCNC(C)Cc1ccc(OC)c(S(=O)(=O)N2CCCC2)c1.O=C(O)C(=O)O (stereo not drawn) [Example 11, 1-[[5-[2-[2-(5-Fluoro-2-methoxyphenoxy)ethylamino]propyl]-2methoxyphenyl]sulfonyl]pyrrolidine oxalate] | 9.33 | – | – | 64.6
COc1ccc(F)cc1OCCNC(C)Cc1ccc(OC)c(S(N)(=O)=O)c1 (stereo not drawn) [Example 1, 5-[2-[2-(5-Fluoro-2-methoxyphenoxy)ehtylamino]propyl]-2-methoxybenzenesulfonamide hydrochloride] | 9.45 | 339 | 120 | –
COc1ccc(F)cc1OCCNC(C)Cc1ccc(OC)c(S(=O)(=O)N(C)C)c1 (stereo not drawn) [Example 10, 5-[2-[2-(5-Fluoro-2-methoxyphenoxy)ethylamino]propy]-2-methoxy-N,N-dimethylbenzenesulfonamide oxalate] | 9.42 | 288 | 110 | –
